For 21 compounds, selectivity ratio and IC50 results are on record in ChEMBL document CHEMBL2413023, “Antiparasitic hybrids of Cinchona alkaloids and bile acids” (Eur J Med Chem, 2013).

A short description of series [1]: in vitro. To be noted: human, WI38 cells.
Description: Selectivity index, ratio of IC50 for human WI38 cells to IC50 for Trypanosoma brucei brucei Lister 427 bloodstream form
For series [2], the system named is Plasmodium falciparum. As to the kind of experiment: Antiplasmodial activity against erythrocytic stage of chloroquine-sensitive Plasmodium falciparum 3D7 assessed as parasite LDH activity by three-fold serial dilution method. Format: functional, organism-based.
Series [3] relates to WI-38. As to the kind of experiment: Cytotoxicity against human WI38 cells by MTT assay. Format: cell-based. In general terms: Tetrazolium assays rely on reduction of a dye to a coloured formazan, in cell work by metabolically active cells.
Series [4] is described as follows: Selectivity index, ratio of IC50 for human WI38 cells to IC50 for erythrocytic stage of chloroquine-sensitive Plasmodium falciparum 3D7. Type of series: toxicity, cell-based, WI-38. To be noted: read-out: Ratio IC50.
Series [5] has as its system Trypanosoma brucei brucei. As to the kind of experiment: Antitrypanosomal activity against Trypanosoma brucei brucei Lister 427 bloodstream form assessed as parasite LDH activity by three-fold serial dilution method. Type of series: functional, organism-based.
Series [6] concerns Leishmania mexicana mexicana. As to the kind of experiment: Antileishmanial activity against Leishmania mexicana mexicana MHOM/BZ/84/BEL46 promastigotes assessed as parasite LDH activity by three-fold serial dilution method. Type of series: functional, organism-based.
A short description of series [7]: Selectivity index, ratio of IC50 for human WI38 cells to IC50 for Leishmania mexicana mexicana MHOM/BZ/84/BEL46 promastigotes. Type of series: toxicity, cell-based, WI-38. To be noted: read-out: Ratio IC50.

Values after ≈ are worked out from the molar mass of the structure shown.

Consider `C=C[C@H]1CN2CC[C@H]1C[C@@H]2[C@@H](O)c1ccnc2ccc(OC)cc12` [QUINIDINE], for which the results for the selectivity ratio in series [1] and in series [4] were 1.3 and 179, respectively. The IC50 (as a rule, the midpoint of a concentration-inhibition curve) is 0.06 µg/mL (≈ 0.185 µM) in series [2], 11.3 µg/mL (≈ 34.8 µM) in series [3], 8.42 µg/mL (≈ 26 µM) in series [5] and more than 20 µg/mL in series [6].
In the case of `C=C[C@H]1CN2CC[C@H]1C[C@H]2[C@@H](O)c1cc(CC[C@@H](C)[C@H]2CC[C@H]3[C@@H]4[C@H](OC(C)=O)C[C@@H]5C[C@H](OC(C)=O)CC[C@]5(C)[C@H]4CC[C@]23C)nc2ccc(OC)cc12`, the selectivity ratio is 7.1 in series [1], 0.75 in series [7] and 8.1 in series [4]. The IC50 in series [2] worked out at 0.38 µg/mL (≈ 0.503 µM); in series [3], 3.1 µg/mL (≈ 4.11 µM); in series [5], 0.44 µg/mL (≈ 0.583 µM); in series [6], 4.15 µg/mL (≈ 5.5 µM).
With `C=C[C@H]1CN2CC[C@H]1C[C@H]2[C@H](O)c1cc(CC[C@@H](C)[C@H]2CC[C@H]3[C@@H]4CC[C@@H]5C[C@H](OC(C)=O)CC[C@]5(C)[C@H]4CC[C@]23C)nc2ccc(OC)cc12`, the selectivity ratio in series [1] worked out at 8; in series [7], 1.2; in series [4] it was 2.7. The IC50 in series [2] came to 6.07 µg/mL (≈ 8.71 µM); in series [3], 16.2 µg/mL (≈ 23.2 µM); in series [5], 2.03 µg/mL (≈ 2.91 µM); in series [6] it was 14 µg/mL (≈ 20 µM).
Regarding `C=C[C@H]1CN2CC[C@H]1C[C@@H]2[C@@H](O)c1ccnc2ccccc12` [CINCHONINE], the half-maximal inhibitory concentration (IC50) in series [2] was 0.09 µg/mL (≈ 0.306 µM); in series [3], more than 20 µg/mL; in series [5], more than 20 µg/mL; in series [6] it was more than 20 µg/mL. Moreover, the selectivity ratio in series [4] is more than 222.
`C=C[C@H]1CN2CC[C@H]1C[C@H]2[C@H](O)c1ccnc2ccc(OC)cc12` [QUININE]: the figures for the selectivity ratio in series [1] and in series [4] were 1 and 32, respectively. For the same compound, the IC50 in series [2] was 0.2 µg/mL (≈ 0.616 µM); in series [3], 6.56 µg/mL (≈ 20.2 µM); in series [5], 6.87 µg/mL (≈ 21.2 µM); in series [6], more than 20 µg/mL.
On to `C=C[C@H]1CN2CC[C@H]1C[C@H]2[C@H](O)c1cc(CC[C@@H](C)[C@H]2CC[C@H]3[C@@H]4CC[C@@H]5C[C@H](O)CC[C@]5(C)[C@H]4CC[C@]23C)nc2ccc(OC)cc12`, for which the 50% inhibitory concentration (IC50) is 4.24 µg/mL (≈ 6.47 µM) in series [2], more than 20 µg/mL in series [3], 3.53 µg/mL (≈ 5.39 µM) in series [5] and more than 20 µg/mL in series [6].
In the case of `C=C[C@H]1CN2CC[C@H]1C[C@H]2[C@H](O)c1cc(CC[C@@H](C)[C@H]2CC[C@H]3[C@@H]4CC[C@@H]5C[C@H](O)CC[C@]5(C)[C@H]4CC[C@]23C)nc2ccccc12`, the selectivity ratio in series [1] amounted to 4.3; in series [7], 0.72; in series [4], 8.7. Also, the IC50 was found to be 1.07 µg/mL (≈ 1.71 µM) in series [2], 9.28 µg/mL (≈ 14.8 µM) in series [3], 2.16 µg/mL (≈ 3.46 µM) in series [5] and 12.8 µg/mL (≈ 20.5 µM) in series [6].
With `C=C[C@H]1CN2CC[C@H]1C[C@H]2[C@@H](O)c1cc(CC[C@@H](C)[C@H]2CC[C@H]3[C@@H]4CC[C@@H]5C[C@H](OC(C)=O)CC[C@]5(C)[C@H]4CC[C@]23C)nc2ccc(OC)cc12`, the results for the selectivity ratio in series [1], in series [7] and in series [4] were 2.6, 0.57 and 9.7, respectively. Also, the IC50 in series [2] worked out at 0.81 µg/mL (≈ 1.16 µM); in series [3], 7.79 µg/mL (≈ 11.2 µM); in series [5], 2.97 µg/mL (≈ 4.26 µM); in series [6], 13.7 µg/mL (≈ 19.6 µM).
With `Cc1ccc(C(=O)Nc2ccc(S(=O)(=O)O)c3cc(S(=O)(=O)O)cc(S(=O)(=O)O)c23)cc1NC(=O)c1cccc(NC(=O)Nc2cccc(C(=O)Nc3cc(C(=O)Nc4ccc(S(=O)(=O)O)c5cc(S(=O)(=O)O)cc(S(=O)(=O)O)c45)ccc3C)c2)c1` [SURAMIN], the IC50 in series [5] was 0.11 µg/mL (≈ 0.0848 µM).
Take `C=C[C@H]1CN2CC[C@H]1C[C@H]2[C@H](O)c1ccnc2ccccc12` [CINCHONIDINE]: the IC50 in series [2] was 0.28 µg/mL (≈ 0.951 µM); in series [3] it was more than 20 µg/mL; in series [5], 18.3 µg/mL (≈ 62.1 µM); in series [6] it was 5.74 µg/mL (≈ 19.5 µM). The selectivity ratio in series [7] is 0.96; in series [4], more than 71.
For the compound `C=C[C@H]1CN2CC[C@H]1C[C@H]2[C@@H](O)c1cc(CC[C@@H](C)[C@H]2CC[C@H]3[C@@H]4CC[C@@H]5C[C@H](O)CC[C@]5(C)[C@H]4CC[C@]23C)nc2ccccc12`, the selectivity ratio came to 1.3 in series [1], 0.97 in series [7] and 4.6 in series [4]. For the same compound, the half-maximal inhibitory concentration (IC50) in series [2] was determined as 0.86 µg/mL (≈ 1.38 µM); in series [3], 3.97 µg/mL (≈ 6.35 µM); in series [5] it was 3.01 µg/mL (≈ 4.82 µM); in series [6] it was 4.08 µg/mL (≈ 6.53 µM).
Turning to `C=C[C@H]1CN2CC[C@H]1C[C@H]2[C@H](O)c1cc(CC[C@@H](C)[C@H]2CC[C@H]3[C@@H]4[C@H](O)C[C@@H]5C[C@H](O)CC[C@]5(C)[C@H]4CC[C@]23C)nc2ccccc12`, the selectivity ratio stood at 4.3 in series [1], 0.5 in series [7] and 7.5 in series [4]. For the same compound, the IC50 came to 0.23 µg/mL (≈ 0.359 µM) in series [2], 1.71 µg/mL (≈ 2.67 µM) in series [3], 0.4 µg/mL (≈ 0.624 µM) in series [5] and 3.45 µg/mL (≈ 5.38 µM) in series [6].
On to `C=C[C@H]1CN2CC[C@H]1C[C@H]2[C@@H](O)c1cc(CC[C@@H](C)[C@H]2CC[C@H]3[C@@H]4CC[C@@H]5C[C@H](O)CC[C@]5(C)[C@H]4CC[C@]23C)nc2ccc(OC)cc12`, for which the selectivity ratio in series [1] was determined as 3.3; in series [7] it was 0.64; in series [4], 3.8. The half-maximal inhibitory concentration (IC50) in series [2] came out at 0.68 µg/mL (≈ 1.04 µM); in series [3] it was 2.59 µg/mL (≈ 3.95 µM); in series [5], 0.79 µg/mL (≈ 1.21 µM); in series [6] it was 4.05 µg/mL (≈ 6.18 µM).
Consider `C=C[C@H]1CN2CC[C@H]1C[C@H]2[C@@H](O)c1cc(CC[C@@H](C)[C@H]2CC[C@H]3[C@@H]4[C@H](O)C[C@@H]5C[C@H](O)CC[C@]5(C)[C@H]4CC[C@]23C)nc2ccccc12`, for which the selectivity ratio came out at 3.6 in series [1], 0.42 in series [7] and 15.7 in series [4]. Further, the half-inhibitory concentration (IC50) in series [2] was found to be 0.09 µg/mL (≈ 0.14 µM); in series [3], 1.42 µg/mL (≈ 2.22 µM); in series [5], 0.39 µg/mL (≈ 0.608 µM); in series [6], 3.39 µg/mL (≈ 5.29 µM).
With `C=C[C@H]1CN2CC[C@H]1C[C@H]2[C@@H](O)c1cc(CC[C@@H](C)[C@H]2CC[C@H]3[C@@H]4[C@H](O)C[C@@H]5C[C@H](O)CC[C@]5(C)[C@H]4CC[C@]23C)nc2ccc(OC)cc12`, the selectivity ratio was found to be 5.3 in series [1], 0.51 in series [7] and 14 in series [4]. Moreover, the concentration for half-maximal inhibition (IC50) in series [2] turned out to be 0.14 µg/mL (≈ 0.209 µM); in series [3] it was 1.95 µg/mL (≈ 2.91 µM); in series [5] it was 0.37 µg/mL (≈ 0.551 µM); in series [6], 3.86 µg/mL (≈ 5.75 µM).
On to `C[C@@H]1[C@H](O)[C@@H](C)/C=C/C=C/C=C/C=C/C=C/C=C/C=C/[C@H](O[C@@H]2O[C@H](C)[C@@H](O)[C@H](N)[C@@H]2O)C[C@@H]2O[C@](O)(C[C@@H](O)C[C@@H](O)[C@H](O)CC[C@@H](O)C[C@@H](O)CC(=O)O[C@H]1C)C[C@H](O)[C@H]2C(=O)O` [AMPHOTERICIN B], for which the 50% inhibitory concentration (IC50) in series [6] was determined as 0.1 µg/mL (≈ 0.108 µM).
For the compound `C=C[C@H]1CN2CC[C@H]1C[C@H]2[C@H](O)c1cc(CC[C@@H](C)[C@H]2CC[C@H]3[C@@H]4CC[C@@H]5C[C@H](OC(C)=O)CC[C@]5(C)[C@H]4CC[C@]23C)nc2ccccc12`, the values for the selectivity ratio in series [1], in series [7] and in series [4] were 4.4, 0.46 and 4.6, respectively. The IC50 was determined as 1.21 µg/mL (≈ 1.81 µM) in series [2], 5.58 µg/mL (≈ 8.37 µM) in series [3], 1.27 µg/mL (≈ 1.9 µM) in series [5] and 12.2 µg/mL (≈ 18.3 µM) in series [6].
For the compound `C=C[C@H]1CN2CC[C@H]1C[C@H]2[C@H](O)c1cc(CC[C@@H](C)[C@H]2CC[C@H]3[C@@H]4[C@H](OC(C)=O)C[C@@H]5C[C@H](OC(C)=O)CC[C@]5(C)[C@H]4CC[C@]23C)nc2ccccc12`, the values for the selectivity ratio in series [1], in series [7] and in series [4] were 4.3, 0.45 and 8.4, respectively. The concentration for half-maximal inhibition (IC50) in series [2] amounted to 0.21 µg/mL (≈ 0.29 µM); in series [3], 1.77 µg/mL (≈ 2.44 µM); in series [5], 0.41 µg/mL (≈ 0.565 µM); in series [6], 3.91 µg/mL (≈ 5.39 µM).
For the compound `C=C[C@H]1CN2CC[C@H]1C[C@H]2[C@@H](O)c1cc(CC[C@@H](C)[C@H]2CC[C@H]3[C@@H]4CC[C@@H]5C[C@H](OC(C)=O)CC[C@]5(C)[C@H]4CC[C@]23C)nc2ccccc12`, the selectivity ratio in series [1] stood at 5.6; in series [7], 0.58; in series [4], 3.1. The half-maximal inhibitory concentration (IC50) in series [2] was 2.26 µg/mL (≈ 3.39 µM); in series [3], 7.02 µg/mL (≈ 10.5 µM); in series [5], 1.26 µg/mL (≈ 1.89 µM); in series [6], 12.1 µg/mL (≈ 18.1 µM).
On to `C=C[C@H]1CN2CC[C@H]1C[C@H]2[C@@H](O)c1cc(CC[C@@H](C)[C@H]2CC[C@H]3[C@@H]4[C@H](OC(C)=O)C[C@@H]5C[C@H](OC(C)=O)CC[C@]5(C)[C@H]4CC[C@]23C)nc2ccccc12`, for which the selectivity ratio in series [1] worked out at 4.5; in series [7] it was 0.47; in series [4], 10.2. Moreover, the IC50 in series [2] came out at 0.19 µg/mL (≈ 0.262 µM); in series [3], 1.93 µg/mL (≈ 2.66 µM); in series [5], 0.43 µg/mL (≈ 0.593 µM); in series [6], 4.11 µg/mL (≈ 5.67 µM).
`CC[C@@]1(O)C(=O)OCc2c1cc1n(c2=O)Cc2cc3ccccc3nc2-1` [CAMPTOTHECIN] had a concentration for half-maximal inhibition (IC50) in series [3] of 0.4 µg/mL (≈ 1.15 µM).
